According to PubChem BioAssay (NCI):
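How tested: cells in 96-well plates exposed to compound for 48 hours at five concentrations. At the TGI there is no net growth.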

Experiments:
Experiment in all cases: DTP human tumour cell line panel, 48 h
[1] = tested on: HOP-62 NSCLC
[2] = tested on: MOLT-4 leukemia
[3] = tested on: CCRF-CEM leukemia
[4] = tested on: NCI-H226 lung
[5] = tested on: SNB-75 CNS
[6] = tested on: SK-MEL-28 melanoma
[7] = tested on: LOX IMVI melanoma
[8] = tested on: MDA-MB-435
[9] = tested on: K-562 leukemia
[10] = tested on: OVCAR-5 ovarian

| Structure (SMILES) | TGI [1] [µM] | TGI [2] [µM] | TGI [3] [µM] | TGI [4] [µM] | TGI [5] [µM] | TGI [6] [µM] | TGI [7] [µM] | TGI [8] [µM] | TGI [9] [µM] | TGI [10] [µM] |
| --- | --- | --- | --- | --- | --- | --- | --- | --- | --- | --- |
| COc1cc(/C=C/C(=O)CC(=O)/C=C/c2cc(C)c(O)c(OC)c2)cc(C)c1O | > 100 | > 100 | > 100 | > 100 | > 100 | > 100 | > 100 | > 100 | > 100 | > 100 |
| COc1c(C(=O)/C(=N/Nc2ccc(C(=O)O)cc2)C(C)=O)c(O)cc2occc12 | > 100 | > 100 | > 100 | > 100 | > 100 | > 100 | > 100 | > 100 | > 100 | > 100 |
| CCC(C)C(Nc1c2ccccc2nc2c(C(=O)NCCN(C)C)cccc12)C(=O)O (stereo not given) | > 100 | > 100 | > 100 | 32.1 | 61.8 | 67.1 | > 100 | 41.9 | > 100 | > 100 |
| Cc1ccc(C(=O)Nc2ccc(S(=O)(=O)O)c3cc(S(=O)(=O)O)cc(S(=O)(=O)O)c23)cc1NC(=O)c1cccc(NC(=O)Nc2cccc(C(=O)Nc3cc(C(=O)Nc4ccc(S(=O)(=O)O)c5cc(S(=O)(=O)O)cc(S(=O)(=O)O)c45)ccc3C)c2)c1 | > 100 | > 100 | > 100 | > 89.4 | > 100 | > 100 | > 100 | > 100 | > 100 | > 100 |
| CCN(CC)Cc1cc(N=Nc2c(O)ccc3c(N=Nc4ccc(O)c(CN(CC)CC)c4)c(O)ccc23)ccc1O | 15.2 | 12.1 | > 53.3 | 22.7 | 27.7 | 20 | 3.37 | 20.8 | > 36.3 | > 44.9 |
